Measured values from ChEMBL document CHEMBL3853322, “Thrombospondin-1 Mimetic Agonist Peptides Induce Selective Death in Tumor Cells: Design, Synthesis, and Structure-Activity Relationship Studies” (J Med Chem, 2016).
Activity calls are given as the source filed them. The calls are words filed in the database; no cut-off is given here. Square brackets hold non-standard residues; d marks the D form. Peptide text beside a SMILES is read from it. * marks the point of attachment. X1 = N=C(N)NCCC[C@H](CN)C(=O)*; β3hK = NCCCC[C@H](N)CC(=O)O

Assays:
[1] = Induction of programmed cell death in human MEC1 cells at 200 uM after 2 hrs by Annexin-V/propidium iodide staining based FACS analysis; assay type: functional
[2] = Induction of cell death in human Jurkat cells at 300 uM after 2 hrs by Annexin-V/propidium iodide staining based FACS analysis; assay type: functional
[3] = Induction of cell death in human CEM cells at 300 uM after 2 hrs by Annexin-V/propidium iodide staining based FACS analysis; assay type: functional, CCRF-CEM
[4] = Induction of cell death in human MDA-MB-231 cells at 300 uM after 2 hrs by Annexin-V/propidium iodide staining based FACS analysis; assay type: functional
[5] = Induction of cell death in human MCF7 cells at 300 uM after 2 hrs by Annexin-V/propidium iodide staining based FACS analysis; assay type: functional
[6] = Induction of cell death in human AU565 cells at 300 uM after 2 hrs by Annexin-V/propidium iodide staining based FACS analysis; assay type: functional
[7] = Induction of cell death in human HBL100 cells at 300 uM after 2 hrs by Annexin-V/propidium iodide staining based FACS analysis; assay type: functional, HBL-100
[8] = Induction of cell death in human Raji cells at 300 uM after 2 hrs by Annexin-V/propidium iodide staining based FACS analysis; assay type: functional
[9] = Induction of cell death in human Ramos cells at 300 uM after 2 hrs by Annexin-V/propidium iodide staining based FACS analysis; assay type: functional
[10] = Induction of cell death in human RPMI8226 cells at 300 uM after 2 hrs by Annexin-V/propidium iodide staining based FACS analysis; assay type: functional, RPMI-8226
[11] = Induction of cell death in human RPMI8866 cells at 300 uM after 2 hrs by Annexin-V/propidium iodide staining based FACS analysis; assay type: functional, RPMI-8866
[12] = Induction of cell death in human HeLa cells at 300 uM after 2 hrs by Annexin-V/propidium iodide staining based FACS analysis; assay type: functional
[13] = Induction of cell death in human MEC1 cells at 300 uM after 2 hrs by Annexin-V/propidium iodide staining based FACS analysis; assay type: functional
CLL [14] = experiment: Induction of programmed cell death in human CLL cells harboring TP53 17p deletion mutant at 50 to 400 uM after 2 hrs by Annexin-V/propidium iodide staining based FACS analysis; assay type: functional
CLL [15] = experiment: Induction of programmed cell death in human CLL cells harboring ATM 11q deletion mutant at 50 to 400 uM after 2 hrs by Annexin-V/propidium iodide staining based FACS analysis; assay type: functional
[16] = Induction of cell death in human U937 cells at 300 uM after 2 hrs by Annexin-V/propidium iodide staining based FACS analysis; assay type: functional, U-937
[17] = Induction of cell death in human JM1 cells at 300 uM after 2 hrs by Annexin-V/propidium iodide staining based FACS analysis; assay type: functional
[18] = Induction of cell death in human OVCAR10 cells at 300 uM after 2 hrs by Annexin-V/propidium iodide staining based FACS analysis; assay type: functional
[19] = Induction of cell death in human A549 cells at 300 uM after 2 hrs by Annexin-V/propidium iodide staining based FACS analysis; assay type: functional
[20] = Induction of cell death in human LNCAP cells at 300 uM after 2 hrs by Annexin-V/propidium iodide staining based FACS analysis; assay type: functional
[21] = Cytotoxicity against human B lymphocytes assessed as cell death at 50 to 400 uM after 2 hrs by Annexin-V/propidium iodide staining based FACS analysis; assay type: toxicity
CLL [22] = experiment: Induction of programmed cell death in human CLL cells at 50 to 400 uM after 2 hrs by Annexin-V/propidium iodide staining based FACS analysis; assay type: functional
[23] = Drug degradation in human serum up to 5 mins by HPLC analysis; assay type: ADME
[24] = Aqueous solubility of compound in 50 mM sodium succinate buffer at >1 mM at pH 5 by 1D 1H NMR spectroscopic analysis; assay type: physicochemical
[25] = Metabolic stability in human serum at 10 mg/ml at 37 degC after 2 hrs by HPLC analysis; assay type: ADME
[26] = Aqueous solubility of compound in 50 mM sodium succinate buffer at 2 mM at pH 5 by 1D 1H NMR spectroscopic analysis; assay type: physicochemical; details: buffer, pH 5, 2000 µM

CSCC[C@H](NC(=O)[C@@H](NC(=O)[C@@H](NC(=O)[C@H](C)NC(=O)[C@H](Cc1ccccc1)NC(=O)[C@H](CCCNC(=N)N)NC(=O)[C@H](N)CCCCN)C(C)C)C(C)C)C(=O)N[C@@H](Cc1c[nH]c2ccccc12)C(=O)N[C@@H](CCCCN)C(=O)N[C@H](CCCCN)C(=O)O
Activity [1]: 0%

CSCC[C@H](NC(=O)[C@@H](NC(=O)[C@@H](NC(=O)[C@H](Cc1ccc(O)cc1)NC(=O)[C@H](Cc1ccccc1)NC(=O)[C@H](CCCNC(=N)N)NC(=O)[C@@H](N)CCCCN)C(C)C)C(C)C)C(=O)N[C@@H](Cc1c[nH]c2ccccc12)C(=O)N[C@@H](CCCCN)C(=O)N[C@@H](CCCCN)C(=O)O
Activity [2]: 30% | Activity [3]: 30% | Activity [4]: 30% | Activity [5]: 30% | Activity [6]: 30% | Activity [7]: 30% | Activity [8]: 30% | Activity [9]: 30% | Activity [10]: 30% | Activity [11]: 30% | Activity [12]: 30% | Activity [13]: 30% | Activity (CLL [14]): Active | Activity (CLL [15]): Active | Activity [16]: 30% | Activity [17]: 30% | Activity [18]: 30% | Activity [19]: 30% | Activity [20]: 30% | Activity [21]: Non-Toxic | Activity (CLL [22]): Active | Stability [23]: Unstable | solubility [24]: Soluble | Activity [1]: 23%

CSCC[C@H](NC(=O)[C@@H](NC(=O)[C@H](C)NC(=O)[C@H](Cc1ccc(O)cc1)NC(=O)[C@H](Cc1ccccc1)NC(=O)[C@H](CCCNC(=N)N)NC(=O)[C@H](N)CCCCN)C(C)C)C(=O)N[C@@H](Cc1c[nH]c2ccccc12)C(=O)N[C@@H](CCCCN)C(=O)N[C@H](CCCCN)C(=O)O (H-[dK]RFYAVMWK[dK]-OH)
Activity [1]: 12%

CSCC[C@H](NC(=O)[C@@H](NC(=O)[C@@H](NC(=O)[C@H](Cc1ccc(O)cc1)NC(=O)[C@H](Cc1ccccc1)NC(=O)[C@@H](CN)CCCNC(=N)N)C(C)C)C(C)C)C(=O)N[C@@H](Cc1c[nH]c2ccccc12)C(=O)N[C@@H](CCCCN)CC(=O)O (X1-FYVVMW[β3hK]-OH)
Stability [25]: Stable | solubility [26]: Insoluble

CSCC[C@H](NC(=O)[C@H](C)NC(=O)[C@@H](NC(=O)[C@H](Cc1ccc(O)cc1)NC(=O)[C@H](Cc1ccccc1)NC(=O)[C@H](CCCNC(=N)N)NC(=O)[C@H](N)CCCCN)C(C)C)C(=O)N[C@@H](Cc1c[nH]c2ccccc12)C(=O)N[C@@H](CCCCN)C(=O)N[C@H](CCCCN)C(=O)O (H-[dK]RFYVAMWK[dK]-OH)
Activity [1]: 30%

H-KRFYGGMWKK-OH
Activity [1]: 2%

CC(C)[C@H](NC(=O)[C@H](Cc1ccc(O)cc1)NC(=O)[C@H](Cc1ccccc1)NC(=O)[C@H](CCCNC(=N)N)NC(=O)[C@H](N)CCCCN)C(=O)N[C@H](C(=O)N[C@@H](C)C(=O)N[C@@H](Cc1c[nH]c2ccccc12)C(=O)N[C@@H](CCCCN)C(=O)N[C@H](CCCCN)C(=O)O)C(C)C (H-[dK]RFYVVAWK[dK]-OH)
Activity [1]: 6%

CSCC[C@H](NC(=O)[C@@H](NC(=O)[C@@H](NC(=O)[C@H](Cc1ccc(O)cc1)NC(=O)[C@H](Cc1ccccc1)NC(=O)[C@H](CCCNC(=N)N)NC(=O)[C@H](N)CCCCN)C(C)C)C(C)C)C(=O)N[C@@H](Cc1c[nH]c2ccccc12)C(=O)N[C@@H](C)C(=O)N[C@H](CCCCN)C(=O)O (H-[dK]RFYVVMWA[dK]-OH)
Activity [1]: 46%
